Read-outs that look alike come from different tables or passages of the source.
Legend:
[1] = therapeutic doses, FDA alert issued on May 21, 2007; cited from earlier work
astrocytes = assay: RXR mediated intracellular Aβ degradation with PPARγ or LXR inhibitors, astrocytes; type: cell-based; details: inhibitor pretreatment 1.5 hrs, Bexarotene 24 hours, 18 hours 2 ug/mL soluble Aβ
Text: (§1) FIG. 14 illustrates graphs showing RXR mediated intracellular Aβ degradation is prevented by inhibiting PPARγ or LXR.
(§2) To determine which heterodimer partners are involved in RXR activation driven Aβ intracellular degradation, we inhibited PPARγ and LXR by competitive inhibitors, TO and 22-s-Hydroxycholesterol, respectively. Aβ degradation mediated by either microglia (A) or astrocytes (B) is inhibited with either inhibitor to PPAR or LXR. Additionally, a co-treatment with both inhibitors reduces Aβ degradation further (FIG. 14).

microglia = assay: RXR mediated intracellular Aβ degradation with PPARγ or LXR inhibitors, microglia; type: cell-based; details: inhibitor pretreatment 1.5 hrs, Bexarotene 24 hours, 18 hours 2 ug/mL soluble Aβ
Text: as §1, §2

primary microglia = assay: Proteolytic degradation of Aβ by primary microglia; type: cell-based, murine; details: for intracellular Aβ levels: 24 hours drug then 18 hours with 2 μg/mL soluble Aβ
Text: FIG. 5 illustrates graphs showing RXR agonists stimulate Aβ degradation.
Given the ability of RXR activation to drive LXR target gene expression, we predicted that agonist treatment should promote the proteolytic degradation of Aβ by microglia. […] Aβ uptake was unaffected by either drug treatment.

primary astrocytes = assay: Proteolytic degradation of Aβ by primary astrocytes; type: cell-based, murine
Text: FIG. 12 illustrates a graph showing RXR agonist stimulate Aβ degradation in astrocytes.
As shown above, astrocytes can drive the expression of LXR target genes after RXR activation, we predicted that agonist treatment should also promote the intracellular degradation of Aβ by astrocytes. […]. Aβ uptake was not affected by drug treatments (data not shown).

[2] = humans, extended periods of use; cited from earlier work
AD animal model = assay: Contextual fear conditioning in AD animal model; details: 6 month old AD model mice, 100 mg/kg/day oral gavage, 7 days
Description: Wildtype littermates were used as a control and were orally gavaged with water for 7 days (n=5). Following treatment, animals underwent contextual fear conditioning. The number of times the animals froze over a two minute period was assessed after training.

[3] = system: LXR target genes, ABCA1 and ABCG1; details: murine model of mixed dyslipidemis; cited from earlier work
ApoE knock out microglia = assay: Intracellular Aβ degradation in ApoE knock out microglia; type: cell-based, murine
[4] = system: LXR target genes (ABCA1, ABCG1, ApoE); details: primary murine microglia, increasing doses, 24 hours
Text: Cell lysates were subjected to Western analysis for ABCA1, ABCG1, ApoE, and GAPDH as a loading control.

CD36 = assay: Expression of PPARγ target gene CD36 in primary astrocytes (qRT-PCR); details: confluent primary murine astrocytes, 10 nM, time course
Text: Cell lysates were subjected to quantitative RT-PCR. GAPDH served as a control.

ApoE = ApoE lipidation status in astrocyte conditioned media (native gel electrophoresis, Western); type: cell-based; details: confluent primary murine astrocytes, increasing doses, 48 hours
Text: FIG. 4 illustrates an immunoassay showing ApoE lipidation status is increased after RXR agonist treatment. […] Conditioned media was subjected to native gel electrophoresis followed by Western analysis for ApoE.
Astrocyte conditioned media was collected and assessed by native gel electrophoresis. […]. (FIG. 4).

[5] = system: ApoE knock out astrocytes; assay: Intracellular Aβ degradation in ApoE knock out astrocytes; type: cell-based, murine
[6] = system: LXR target genes (ABCA1, ABCG1, ApoE); assay: RXR activation drives LXR target gene expression in primary astrocytes (Western analysis); details: primary murine astrocytes, increasing doses, 24 hours
Text: Cell lysates were subjected to Western analysis for ABCA1, ABCG1 and ApoE. Actin served as a load control.

CN(CCOc1ccc(CC2SC(=O)NC2=O)cc1)c1ccccn1 (centres unmarked) [rosiglitazone, 5-[4-[2-(N-methyl-N-(2-pyridyl)amino]ethoxy]benzyl]thiazolidine-2,4-dione]
risk of heart attack [1]: significantly increased risk of heart attack

CC(C)CC[C@H](O)[C@@H](C)[C@H]1CC[C@H]2[C@@H]3CC=C4C[C@@H](O)CC[C@]4(C)[C@H]3CC[C@]12C [22-s-Hydroxycholesterol]
Bexarotene-driven Aβ degradation in presence of inhibitor (astrocytes): inhibited | Bexarotene-driven Aβ degradation in presence of inhibitor (microglia): inhibited

CC1=C(/C=C/C(C)=C\C=C\C(C)=C\C(=O)O)C(C)(C)CCC1 [9cisRA]
Aβ uptake (primary microglia): unaffected | intracellular Aβ levels (primary microglia): dose-dependent reduction

C=C(c1ccc(C(=O)O)cc1)c1cc2c(cc1C)C(C)(C)CCC2(C)C [Bexarotene]
intracellular Aβ levels (primary astrocytes; 24 hours drug then 18 hours with 2 ug/mL soluble Aβ): dose dependent reduction | Aβ uptake (primary astrocytes; data not shown): not affected | clinical safety profile [2]: good safety profile | Aβ uptake (primary microglia): unaffected | intracellular Aβ levels (primary microglia): dose-dependent reduction | contextual fear conditioning behavior (AD animal model): significantly improves behavior | expression of the LXR target genes, ABCA1 and ABCG1 [3]: induce the expression of the LXR target genes, ABCA1 and ABCG1 | intracellular Aβ degradation (ApoE knock out microglia; with exogenous 1 μg/mL ApoE): the effect of intracellular Aβ degradation returns | intracellular Aβ degradation (ApoE knock out microglia; without ApoE): no effect | expression of ABCA1, ABCG1, and ApoE [4]: drives the expression of ABCA1, ABCG1, and ApoE | CD36 expression by qRT-PCR (CD36): drives CD36, a PPARγ regulated gene, expression | lipidation status of ApoE (ApoE): increases the lipidation status of ApoE | intracellular Aβ degradation ([5]; with exogenous 1 μg/mL ApoE): the effect of intracellular Aβ degradation returns | intracellular Aβ degradation ([5]; without ApoE): no effect | expression of ABCA1, ABCG1, and ApoE [6]: drives the expression of ABCA1, ABCG1 and ApoE

From patent publication US20120115912A1, “RXR AGONIST COMPOUNDS AND METHODS” (priority 2009, published 2012)
